Experimental data as given in US5688807A, “Method for treating 5HT2B receptor related conditions” (Eli Lilly and Company, priority 1995, dated 1997).
Counter-ions that a name gives are not always drawn.

Molecular target: 5-HT2B receptor (rat stomach fundus) (Rattus norvegicus, UniProt P30994)
Conditions: not given
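Further: isometric contraction of isolated male Wistar rat stomach fundus strips, serotonin concentration-response curves after antagonist incubation, KB from dose ratio of agonist potency versus control curve.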

Sequence of 5-HT2B receptor (rat stomach fundus) (P30994 whole entry): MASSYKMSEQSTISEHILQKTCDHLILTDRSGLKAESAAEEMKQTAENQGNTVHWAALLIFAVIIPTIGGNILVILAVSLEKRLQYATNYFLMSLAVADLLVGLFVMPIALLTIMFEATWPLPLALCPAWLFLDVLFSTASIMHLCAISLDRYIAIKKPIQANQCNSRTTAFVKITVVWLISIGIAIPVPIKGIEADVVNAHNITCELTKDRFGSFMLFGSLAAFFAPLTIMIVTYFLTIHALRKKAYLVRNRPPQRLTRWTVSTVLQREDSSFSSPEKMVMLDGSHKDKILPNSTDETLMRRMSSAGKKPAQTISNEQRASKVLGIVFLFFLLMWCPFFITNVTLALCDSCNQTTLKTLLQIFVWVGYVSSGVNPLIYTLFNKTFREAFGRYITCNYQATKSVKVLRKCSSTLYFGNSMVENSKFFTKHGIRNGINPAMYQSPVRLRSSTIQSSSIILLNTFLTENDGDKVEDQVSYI

| Structure (SMILES) | Kb |
| --- | --- |
| COc1ccc(CC2NCCc3c2[nH]c2c(Br)c(C)ccc32)cc1OC (stereo not drawn) [Example 7, 7-methyl-8-bromo-1-[(3,4-dimethoxyphenyl)-methyl]-1,2,3,4-tetrahydro-9H-pyrido[3,4-b]indole hydrochloride] | 0.955 nM |

Same assay, conditions: rat stomach fundus; vs serotonin; ± standard error

| Structure (SMILES) | 5-HT2B (Fundus) -log KB |
| --- | --- |
| COc1ccc(CC2c3[nH]c4ccc(C(C)C)cc4c3CCN2C)cc1OC (stereo not drawn) [Example 45, 2-methyl-6-(1-methylethyl)-1,2,3,4-tetrahydro-1-[(3,4-dimethoxyphenyl)methyl]-9H-pyrido-[3,4b]indole maleate] | 8.14 ± 0.32 |

Same assay, conditions: rat stomach fundus; vs serotonin; ± standard error; read-out: 5-HT2B (Fundus) -log KB (converted)

| Structure (SMILES) | Kb |
| --- | --- |
| Cc1ccc2[nH]c3c(c2c1)CCN(C)C3Cc1cccc2ccccc12 (racemic) [Example 58, (+/-) 2,6-dimethyl-1-(1-naphthalenylmethyl)-1,2,3,4-tetrahydro-9H-pyrido [3,4-b] indole hydrochloride] | > 30.2 nM |
| COc1ccc(CC2NCCc3c2[nH]c2c(Br)cc(Br)cc32)cc1OC (stereo not drawn) [Example 3, 6,8-dibromo-1-[(3,4-dimethoxyphenyl)methyl]-1,2,3,4-tetrahydro-9H-pyrido[3,4-b]indole] | 1.66 nM |
| Cc1ccc2c3c([nH]c2c1Br)C(Cc1cccc2ccccc12)NCC3 (racemic) [Example 56, (±) 7-methyl-8-bromo-1-(1-naphthalenylmethyl)-1,2,3,4-tetrahydro-9H-pyrido [3,4-b]indole hydrochloride] | ~29.5 nM |
| c1ccc2c(CC3NCCc4c3[nH]c3c4ccc4ccccc43)cccc2c1 (racemic) [Example 60, (+/-) 7,8,9,10-tetrahydro-10-(1-naphthalenylmethyl)-11H-benzo [g] pyrido [3,4-b] indole (Z)-2-butenedioate] | 1.2 nM |
| COc1ccc(CC2NCCc3c2[nH]c2cc(C)cc(C)c32)cc1OC (stereo not drawn) [Example 15, 5,7-dimethyl-1,2,3,4-tetrahydro-1-[(3,4-dimethoxyphenyl)methyl]-9H-pyrido[3,4b]indole hydrochloride] | 0.457 nM |
| CC(C)c1ccc2[nH]c3c(c2c1)CCNC3Cc1cccc2ccccc12 (racemic) [Example 62, (+/-) 6-(1-methylethyl)-1,2,3,4-tetrahydro-1-(1-naphthalenylmethyl)-9H-pyrido [3,4b] indole (Z)-2-butenedioate] | 2.63 nM |
| COc1ccc(CC2NCCc3c2[nH]c2c(Br)cc(C)cc32)cc1OC (stereo not drawn) [Example 4, 6-methyl-8-bromo-1-[(3,4-dimethoxyphenyl)-methyl]-1,2,3,4-tetrahydro-9H-pyrido[3,4-b]indole hydrochloride] | 1.2 nM |

Next, values leading:

| Kb | Structure (SMILES) |
| --- | --- |
| ~0.794 nM | Brc1cccc2c3c([nH]c12)C(Cc1cccc2ccccc12)NCC3 (racemic) [Example 52, (±) 8-bromo-1-(1-naphthalenylmethyl)-1,2,3,4-tetrahydro-9H-pyrido [3,4-b]indole hydrochloride] |
| 0.646 nM | COc1c(O)ccc(CC2NCCc3c2[nH]c2ccc(C)cc32)c1Cl (stereo not drawn) [Example 37, 6-methyl-1-[(2-chloro-3-methoxy-4-hydroxyphenyl)methyl]-1,2,3,4-tetrahydro-9H-pyrido[3,4-b]-indole hydrochloride] |
| 0.363 nM | CCC(c1ccc(OC)c(OC)c1)C1NCCc2c1[nH]c1ccc(C)cc21 (racemic) [Example 43, (±) 6-methyl-1-[(3,4-dimethoxyphenyl)-1-propyl]-1,2,3,4-tetrahydro-9H-pyrido[3,4-b]indole (Z)-2-butenedioate] |
| 4.79 nM | Cc1ccc2[nH]c3c(c2c1)CCNC3CC1CCCCC1 (stereo not drawn) [Example 39, 6-methyl-1-(cyclohexylmethyl)-1,2,3,4-tetrahydro-9H-pyrido[3,4-b]indole hydrochloride] |
| 3.98 nM | COc1ccc(CC2c3[nH]c4ccc(C)cc4c3CCN2C)c(Cl)c1OC (stereo not drawn) [Example 44, 2,6-dimethyl-1-[(2-chloro-3,4-dimethoxyphenyl)methyl]-1,2,3,4-tetrahydro-9H-pyrido[3,4-b]indole hydrochloride] |
| > 10 nM | c1ccc2c(CC3NCCc4c3[nH]c3ccc(C5CCCCC5)cc43)cccc2c1 (racemic) [Example 57, (+/-) 6-cyclohexyl-1-(1-naphthalenylmethyl)-1,2,3,4-tetrahydro-9H-pyrido [3,4-b] indole hydrochloride] |
